# US12668573B2, “Linker, antibody-drug conjugate including same and use thereof” (Zhejiang Yangshengtang Institute of Natural Medication Co., …, priority 2018, dated 2026)
# Square brackets hold non-standard residues; d marks the D form. Peptide text beside a SMILES is read from it. * marks the point of attachment. Dolaproine = CO[C@@H]([C@@H]1CCCN1)[C@@H](C)C(=O)O; Dil = CC[C@H](C)[C@H](NC)[C@@H](CC(=O)O)OC; X1 = C[C@@H](N*)[C@@H](O)c1ccccc1; NMeV = CN[C@H](C(=O)O)C(C)C
# Assays:
# [1] = Stability of small molecule-linker conjugates in presence of excess free sulfhydryl (Cys), RP-HPLC; type: physicochemical; conditions: PBS with Cys 0.41 mg/mL, pH=7.4, 37° C., 7 days; peak area at t=0 defined as 100%
# Description: In this example, the small molecule conjugates containing methyl maleate linker (Conjugate-1, Conjugate-2 and Conjugate-3, prepared in Example 9) and small molecule conjugates containing succinimide linker (Conjugate-1′, Conjugate-2′ and Conjugate-3′, prepared in Example 9) were evaluated to determine their stability situations in the presence of excess free sulfhydryl (Cys), in which the monitoring indicators were the changes of the remaining amounts of the small molecule conjugates containing two different linkers in the solution over time. The substances to be tested were each dissolved in DMSO, diluted with 10 times volume of PBS buffer containing cysteine (in which the concentration of Cys was 0.41 mg/mL, pH=7.4) and incubated in a 37° C. incubator; at t=0, another 200 μL of each sample was taken and stored at −80° C. as control. After each solution was incubated for 7 days, samples were taken separately, and RP-HPLC was used to detect the changes of their remaining amounts of substrate over time, in which the peak area of substrate at t=0 was defined as 100%.
# BT-474 = test: In vitro cytotoxicity test (CellTiter Glo, 96 h); type: cell-based, human; conditions: BT-474, HER2-positive breast cancer; ADC DAR about 4
# Description: (§1) The selected cell lines included antigen HER2-positive breast cancer cell lines BT-474 and HCC1954, antigen HER2-positive ovarian cancer cell line SK-OV-3, antigen HER2-positive gastric cancer cell line NCI-N87, and antigen HER2-weakly positive breast cancer cell line MCF-7, and antigen HER2-negative breast cancer cell line MDA-MB-468 (purchased from ATCC).
# a) Vial was gently shaken in a 37° C. water bath to be thawed; b) after all the contents had been thawed, the vial was taken out from the water bath, and disinfected by immersion in or spraying with 70% ethanol; c) the contents of the vial was transferred into a centrifuge tube containing 9 mL of complete medium (DMEM medium was used for cell lines BT-474 and MCF-7; RPMI1640 medium was used for cell lines NCI-N87, HCC1954 and MDA-MB-468; and Mccoy's 5A medium was used for cell line SK-OV-3; the media described below were the same as here), and centrifuged at about 200 xg for 5 minutes; d) the cell pellet was re-suspended in a medium and distributed into a 75 cm^2 culture flask; e) the resulting culture was incubated in a 37° C., 5% CO2 incubator. […]
# HCC1954 = test: In vitro cytotoxicity test (CellTiter Glo, 96 h); type: cell-based; conditions: HCC1954, HER2-positive breast cancer; ADC DAR about 4
# Description: as §1
# (§2) a) Vial was gently shaken in a 37° C. water bath to be thawed; b) after all the contents had been thawed, the vial was taken out from the water bath, and disinfected by immersion in or spraying with 70% ethanol; c) the contents of the vial was transferred into a centrifuge tube containing 9 mL of complete medium (DMEM medium was used for cell lines BT-474 and MCF-7; RPMI1640 medium was used for cell lines NCI-N87, HCC1954 and MDA-MB-468; and Mccoy's 5A medium was used for cell line SK-OV-3; the media described below were the same as here), and centrifuged at about 200 xg for 5 minutes; d) the cell pellet was re-suspended in a medium and distributed into a 75 cm^2 culture flask; e) the resulting culture was incubated in a 37° C., 5% CO2 incubator.
# (§3) a) The cells were passaged three times a week at a ratio of 1:4 in a medium containing 10% FBS (heat inactivated) and 1% penicillin/streptomycin solution; b) for the passaged cells, the adherent cells were firstly washed with 0.05% trypsin/EDTA solution (3 mL), then trypsin/EDTA (3 mL) was added and vortexed to coat the cells evenly. The resulting culture was incubated at 37° C. until the cells were detached (observed with microscope to verify that the cells were detached). An equal volume of cell culture medium was added to inactivate trypsin, the detached cells were collected, and centrifuged at 200×g for 5 minutes and then re-suspended in fresh culture medium.
# MCF-7 = test: In vitro cytotoxicity test (CellTiter Glo, 96 h); type: cell-based; conditions: MCF-7, HER2-weakly positive breast cancer; ADC DAR about 4
# Description: as §1, §2, §3
# MDA-MB-468 = test: In vitro cytotoxicity test (CellTiter Glo, 96 h); type: cell-based; conditions: MDA-MB-468, HER2-negative breast cancer; ADC DAR about 4
# Description: as §1, §2, §3
# NCI-N87 = test: In vitro cytotoxicity test (CellTiter Glo, 96 h); type: cell-based; conditions: NCI-N87, HER2-positive gastric cancer; ADC DAR about 4
# Description: as §1, §2, §3
# SK-OV-3 = test: In vitro cytotoxicity test (CellTiter Glo, 96 h); type: cell-based; conditions: Sk-OV-3, HER2-positive ovarian cancer; ADC DAR about 4
# Description: as §1, §2, §3
Structure (SMILES),Remaining amount [1],other results
COC(=O)CC(SC[C@H](NC(C)=O)C(=O)NCc1ccccc1)C(=O)NCCCCCC(=O)Nc1ccccc1 (stereo partly drawn) [Conjugate-1],96%,
CC(=O)N[C@@H](CSC1CC(=O)N(CCCCCC(=O)Nc2ccccc2)C1=O)C(=O)NCc1ccccc1 (stereo partly drawn) [Conjugate-1′],53%,
COC(=O)CC(SCCO)C(=O)NCCCCCC(=O)Nc1ccccc1 (stereo not drawn) [Conjugate-2],98%,
O=C(CCCCCN1C(=O)CC(SCCO)C1=O)Nc1ccccc1 (stereo not drawn) [Conjugate-2′],61%,
COC(=O)CC(SCc1ccccc1)C(=O)NCCCCCC(=O)Nc1ccccc1 (stereo not drawn) [Conjugate-3],93%,
O=C(CCCCCN1C(=O)CC(SCc2ccccc2)C1=O)Nc1ccccc1 (stereo not drawn) [Conjugate-3′],49%,
"CC[C@H](C)[C@@H]([C@@H](CC(=O)N1CCC[C@H]1[C@H](OC)[C@@H](C)C(=O)N[C@H](C)[C@@H](O)c1ccccc1)OC)N(C)C(=O)[C@@H](NC(=O)[C@@H](NC)C(C)C)C(C)C [MMAE, Monomethyl-auristatin E] (H-[NMeV]V[Dil][Dolaproine]-X1)",,IC50 (BT-474): 0.299 nM; IC50 (HCC1954): 0.116 nM; IC50 (MCF-7): 0.223 nM; IC50 (MDA-MB-468): 0.0669 nM; IC50 (NCI-N87): 0.161 nM; IC50 (SK-OV-3): 0.644 nM
